Measurements as given in patent US12497393B2, “β-lactam compound, use thereof and preparation method therefor” (priority 2020, dated 2025).
≈ marks a conversion by molar mass, not a printed value. Read-outs that look alike come from different tables or passages of the source. Where a SMILES comes first, the peptide text is derived from it. Bridges are numbered along the chain shown (N, C = ends). [ ]: non-standard residue; d: D form. The star is where a group is joined. Heptanoyl(6-Me) = CC(C)CCCCC(=O)*; Dab = NCC[C@H](N)C(=O)O

Columns and labels:
Assay in all cases: Antibacterial activity MIC assay (two-fold dilution agar plating)
Assay type in all cases: cell-based
Acinetobacter baumannii = conditions: for MIC: Acinetobacter baumannii, read-out: Minimal Inhibitory Concentration (MIC)
Description: (§1) Antibacterial Activity-Evaluating Method (MIC Assay)
(§2) In this study, the compounds of the present invention were tested for their antibacterial activities by using two-fold dilution agar plating method and Denley Multipoint Inoculator A400 according to the guidelines of the CLSI/NCCLS standard. The tested strains were amplified by hydrolyzed casein peptone (Mueller-Hinton Agar) broth and Brain and Heart Infusion. The strains used in this study were bacterial strains that were purchased from ATCC or clinically isolated in Chinese hospitals. Aztreonam, polymyxin or levofloxacin was used as positive control. The drugs were diluted with hydrolyzed casein peptone broth to the desired concentrations including 128.0, 64.0, 32.0, 16.0, 8.0, 4.0, 2.0, 1.0, 0.5, 0.25, 0.125, 0.06 and 0.03 μg/mL, and then placed respectively into each well and mixed thoroughly. After inoculation, the tested strains were incubated for 18 hours at a constant temperature of 35° C., and their growth levels were observed. The drug concentration with no microbial growth in the well was recorded as the lowest Minimal Inhibitory Concentration (MIC).

Citrobacter freundii = Citrobacter freundii ATCC 43864
Description: as §1, §2

Enterobacter aerogenes = Enterobacter aerogenes ATCC 13048
Description: as §1, §2

Enterobacter cloacae = conditions: for MIC: read-out: Minimal Inhibitory Concentration (MIC)
Description: as §1, §2

Escherichia coli = conditions: for MIC: Escherichia coli, read-out: Minimal Inhibitory Concentration (MIC)
Description: as §1, §2

Klebsiella Pneumoniae = conditions: for MIC: Klebsiella pneumoniae, read-out: Minimal Inhibitory Concentration (MIC)
Description: as §1, §2

Proteus mirabilis = test system: Proteus mirabilis
Description: as §1, §2

Proteus vulgaris = test system: Proteus vulgaris
Description: as §1, §2

Providencia rettgeri = test system: Providencia rettgeri
Description: as §1, §2

Pseudomonas aeruginosa = conditions: for MIC: read-out: Minimal Inhibitory Concentration (MIC)
Description: as §1, §2

Salmonella typhi = test system: Salmonella typhi
Description: as §1, §2

Serratia marcescens = Serratia marcescens ATCC 21074
Description: as §1, §2

Shigella flexneri = Shigella flexneri ATCC 12022
Description: as §1, §2

[1] = test system: Stenotrophomonas maltophilia; conditions: Stenotrophomonas maltophilia ATCC 13636
Description: as §1, §2

[2] = Enterobacter cloacae CDC1000654
[3] = Escherichia coli 08-85, mcr-1(+)
[4] = Escherichia coli 13-43, mcr-1(+)
[5] = Escherichia coli 13-66, mcr-1(+)
[6] = Escherichia coli 16-1, ESBLs(+)
[7] = Escherichia coli 16-7, ESBLs(−)
[8] = Escherichia coli CDC1001728, NDM-1(+)
[9] = Klebsiella Pneumoniae 09-20, mcr-1(+)
[10] = Klebsiella Pneumoniae 16-2, ESBLs(−)
[11] = Klebsiella Pneumoniae 16-14, ESBLs(+)

## C[C@H]1[C@H](NC(=O)/C(=N\OC(C)(C)C(=O)O)c2csc(N)n2)C(=O)N1S(=O)(=O)O [AZN, aztreonam, reference compound]
Acinetobacter baumannii; ATCC19606, Acinetobacter baumannii ATCC 19606
  MIC: 32 µg/mL (≈ 73.5 µM)
Acinetobacter baumannii; Acinetobacter baumannii 16-16
  MIC: 128 µg/mL (≈ 294 µM)
Acinetobacter baumannii; Acinetobacter baumannii 16-33
  MIC: 32 µg/mL (≈ 73.5 µM)
Citrobacter freundii; ATCC43864, read-out: Minimal Inhibitory Concentration (MIC)
  MIC: 0.12 µg/mL (≈ 0.276 µM)
Enterobacter aerogenes; Klebsiella aerogenes, ATCC13048, read-out: Minimal Inhibitory Concentration (MIC)
  MIC: 0.12 µg/mL (≈ 0.276 µM)
Enterobacter cloacae; ATCC43560, Enterobacter cloacae ATCC 43560
  MIC: ≤ 0.03 µg/mL
Enterobacter cloacae; [2]
  MIC: > 128 µg/mL
Escherichia coli; ATCC25922, Escherichia coli ATCC 25922, ESBLs(−)
  MIC: 0.06 µg/mL (≈ 0.138 µM)
Escherichia coli; ATCC35218, Escherichia coli ATCC 35218, ESBLs(+)
  MIC: ≤ 0.03 µg/mL
Escherichia coli; [3]
  MIC: 4 µg/mL (≈ 9.19 µM)
Escherichia coli; [4]
  MIC: 8 µg/mL (≈ 18.4 µM)
Escherichia coli; [5]
  MIC: 8 µg/mL (≈ 18.4 µM)
Escherichia coli; [6]
  MIC: ≤ 0.03 µg/mL
Escherichia coli; [7]
  MIC: 0.06 µg/mL (≈ 0.138 µM)
Escherichia coli; Escherichia coli 17-R28, CRE, NDM-1(+)
  MIC: 16 µg/mL (≈ 36.7 µM)
Escherichia coli; [8]
  MIC: 4 µg/mL (≈ 9.19 µM)
Klebsiella Pneumoniae; ATCC700603, Klebsiella Pneumoniae ATCC 700603, ESBLs(+)
  MIC: 32 µg/mL (≈ 73.5 µM)
Klebsiella Pneumoniae; ATCCBAA2146, Klebsiella Pneumoniae ATCC BAA-2146, NDM-1(+)
  MIC: > 128 µg/mL
Klebsiella Pneumoniae; [9]
  MIC: 0.25 µg/mL (≈ 0.574 µM)
Klebsiella Pneumoniae; [10]
  MIC: 0.06 µg/mL (≈ 0.138 µM)
Klebsiella Pneumoniae; [11]
  MIC: 4 µg/mL (≈ 9.19 µM)
Klebsiella Pneumoniae; Klebsiella Pneumoniae 17-R27, CRE
  MIC: 0.25 µg/mL (≈ 0.574 µM)
Proteus mirabilis; Proteus mirabilis, ATCC49565, Proteus mirabilis ATCC 49565, read-out: Minimal Inhibitory Concentration (MIC)
  MIC: ≤ 0.03 µg/mL
Proteus vulgaris; Proteus vulgaris, ATCC29905, Proteus vulgaris ATCC 29905, read-out: Minimal Inhibitory Concentration (MIC)
  MIC: ≤ 0.03 µg/mL
Providencia rettgeri; Providencia rettgeri, ATCC31052, Providencia rettgeri ATCC 31052, read-out: Minimal Inhibitory Concentration (MIC)
  MIC: ≤ 0.03 µg/mL
Pseudomonas aeruginosa; ATCC27853, Pseudomonas aeruginosa ATCC 27853
  MIC: 4 µg/mL (≈ 9.19 µM)
Pseudomonas aeruginosa; Pseudomonas aeruginosa 16-11
  MIC: > 128 µg/mL
Pseudomonas aeruginosa; Pseudomonas aeruginosa PAO1
  MIC: 4 µg/mL (≈ 9.19 µM)
Salmonella typhi; Salmonella enterica, TYPHI, read-out: Minimal Inhibitory Concentration (MIC)
  MIC: ≤ 0.03 µg/mL
Serratia marcescens; ATCC21074, read-out: Minimal Inhibitory Concentration (MIC)
  MIC: 0.12 µg/mL (≈ 0.276 µM)
Shigella flexneri; ATCC12022, read-out: Minimal Inhibitory Concentration (MIC)
  MIC: 0.25 µg/mL (≈ 0.574 µM)
[1]; ATCC13636, read-out: Minimal Inhibitory Concentration (MIC)
  MIC: 32 µg/mL (≈ 73.5 µM)

## CC(C)CCCCC(=O)N[C@@H](CCN)C(=O)N[C@H](C(=O)N[C@@H](CCN)C(=O)N[C@H]1CCNC(=O)[C@H]([C@@H](C)O)NC(=O)[C@H](CCN)NC(=O)[C@H](CCN)NC(=O)[C@H](CC(C)C)NC(=O)[C@@H](CC(C)C)NC(=O)[C@H](CCN)NC1=O)[C@@H](C)O [Colistin B, colistin B, reference compound] ({Heptanoyl(6-Me)}-[Dab]T[Dab][Dab][Dab][dL]L[Dab][Dab]T; lactam 4-C)
Acinetobacter baumannii; Acinetobacter baumannii 16-16
  Minimal Inhibitory Concentration (MIC): 1 µg/mL
Acinetobacter baumannii; Acinetobacter baumannii 16-33
  Minimal Inhibitory Concentration (MIC): 2 µg/mL
Acinetobacter baumannii; Acinetobacter baumannii ATCC 19606
  Minimal Inhibitory Concentration (MIC): 1 µg/mL
Citrobacter freundii
  Minimal Inhibitory Concentration (MIC): 2 µg/mL
Enterobacter aerogenes
  Minimal Inhibitory Concentration (MIC): 2 µg/mL
Enterobacter cloacae; Enterobacter cloacae ATCC 43560
  Minimal Inhibitory Concentration (MIC): >64 µg/mL
Enterobacter cloacae; [2]
  Minimal Inhibitory Concentration (MIC): 1 µg/mL
Escherichia coli; [3]
  Minimal Inhibitory Concentration (MIC): 8 µg/mL
Escherichia coli; [4]
  Minimal Inhibitory Concentration (MIC): 8 µg/mL
Escherichia coli; [5]
  Minimal Inhibitory Concentration (MIC): 8 µg/mL
Escherichia coli; [6]
  Minimal Inhibitory Concentration (MIC): 0.5 µg/mL
Escherichia coli; [7]
  Minimal Inhibitory Concentration (MIC): 1 µg/mL
Escherichia coli; Escherichia coli ATCC 25922, ESBLs(−)
  Minimal Inhibitory Concentration (MIC): 1 µg/mL
Escherichia coli; Escherichia coli ATCC 35218, ESBLs(+)
  Minimal Inhibitory Concentration (MIC): 1 µg/mL
Escherichia coli; [8]
  Minimal Inhibitory Concentration (MIC): 1 µg/mL
Klebsiella Pneumoniae; [9]
  Minimal Inhibitory Concentration (MIC): 16 µg/mL
Klebsiella Pneumoniae; [10]
  Minimal Inhibitory Concentration (MIC): 1 µg/mL
Klebsiella Pneumoniae; [11]
  Minimal Inhibitory Concentration (MIC): 1 µg/mL
Klebsiella Pneumoniae; Klebsiella Pneumoniae ATCC 700603, ESBLs(+)
  Minimal Inhibitory Concentration (MIC): 2 µg/mL
Klebsiella Pneumoniae; Klebsiella Pneumoniae ATCC BAA-2146, NDM-1(+)
  Minimal Inhibitory Concentration (MIC): 1 µg/mL
Proteus mirabilis; Proteus mirabilis ATCC 49565
  Minimal Inhibitory Concentration (MIC): >64 µg/mL
Proteus vulgaris; Proteus vulgaris ATCC 29905
  Minimal Inhibitory Concentration (MIC): >64 µg/mL
Providencia rettgeri; Providencia rettgeri ATCC 31052
  Minimal Inhibitory Concentration (MIC): >64 µg/mL
Pseudomonas aeruginosa; Pseudomonas aeruginosa 16-11
  Minimal Inhibitory Concentration (MIC): 4 µg/mL
Pseudomonas aeruginosa; Pseudomonas aeruginosa ATCC 27853
  Minimal Inhibitory Concentration (MIC): 4 µg/mL
Pseudomonas aeruginosa; Pseudomonas aeruginosa PAO1
  Minimal Inhibitory Concentration (MIC): 8 µg/mL
Salmonella typhi; Salmonella typhi H901
  Minimal Inhibitory Concentration (MIC): 1 µg/mL
Serratia marcescens
  Minimal Inhibitory Concentration (MIC): >64 µg/mL
Shigella flexneri
  Minimal Inhibitory Concentration (MIC): 0.5 µg/mL
[1]
  Minimal Inhibitory Concentration (MIC): >64 µg/mL
